Source: paper PMC4501179, “Tuning properties and dynamic range of type 1 vomeronasal receptors” (Frontiers in Neuroscience, 2015)

Target: T1, V1rj3 (Mus musculus, UniProt Q2TBB9)
T1 sequence (Q2TBB9 1-308): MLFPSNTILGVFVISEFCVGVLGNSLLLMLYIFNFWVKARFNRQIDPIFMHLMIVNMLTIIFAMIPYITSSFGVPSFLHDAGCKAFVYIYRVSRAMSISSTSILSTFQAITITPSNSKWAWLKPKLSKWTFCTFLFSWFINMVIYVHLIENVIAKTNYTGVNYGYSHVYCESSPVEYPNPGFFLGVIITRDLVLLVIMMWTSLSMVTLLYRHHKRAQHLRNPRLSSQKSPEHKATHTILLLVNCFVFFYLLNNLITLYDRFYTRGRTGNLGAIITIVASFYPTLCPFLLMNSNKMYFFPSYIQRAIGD
Assay: GCaMP2 calcium imaging of VNO slices from transgenic mice ectopically expressing V1rj3

SMILES	GCaMP2 calcium imaging of VNO slices from transgenic mice ectopically expressing
C[C@]12CC[C@H]3[C@@H](CC=C4C[C@@H](OS(=O)(=O)O)CC[C@@]43C)[C@@H]1CC[C@@H]2OS(=O)(=O)O [A7864, 5-androsten-3β, 17β-diol-disulfate]	10^−5 M
C[C@]12CC[C@@H]3c4ccc(OS(=O)(=O)O)cc4CC[C@H]3[C@@H]1CC[C@@H]2OS(=O)(=O)O [E1050, 1, 3, 5(10)-estratrien-3, 17β-diol disulfate]	10^−10 M
C[C@]12CC[C@@H]3c4ccc(OS(=O)(=O)O)cc4CC[C@H]3[C@@H]1CC[C@@H]2O [E1100, 17β-estradiol 3-sulfate]	10^−5 M
C[C@]12CC[C@@H]3c4ccc(O)cc4CC[C@H]3[C@@H]1CC[C@@H]2OS(=O)(=O)O [E1103, 1,3, 5(10)-estratrien-3, 17β-diol 17-sulfate]	10^−10 M
